ChEMBL document CHEMBL3390834, “Development of second generation epigenetic agents” (Medchemcomm, 2012)

What was measured:
[1] = Inhibition of yeast Sir2p HAD activity using [3H]-acetylated histone H4 as substrate assessed as release of free [3H]-acetate after 16 hrs; design: species or system Saccharomyces cerevisiae
[2] = target: Histone-lysine N-methyltransferase SUV39H1 (Homo sapiens, UniProt O43463); experiment: Inhibition of SUV39H1 (unknown origin) by DELFIA
[3] = target: Histone-lysine N-methyltransferase EHMT2 (Homo sapiens, UniProt Q96KQ7)
Description: Inhibition of recombinant GST-tagged G9a (685 to 1000 amino acids) (unknown origin) expressed in Escherichia coli BL21 using biotinylated histone H3 peptide as substrate by DELFIA

[4] = target: T1, Lysine-specific demethylase 4E (Homo sapiens, UniProt B2RXH2)
T1 sequence (B2RXH2 whole entry): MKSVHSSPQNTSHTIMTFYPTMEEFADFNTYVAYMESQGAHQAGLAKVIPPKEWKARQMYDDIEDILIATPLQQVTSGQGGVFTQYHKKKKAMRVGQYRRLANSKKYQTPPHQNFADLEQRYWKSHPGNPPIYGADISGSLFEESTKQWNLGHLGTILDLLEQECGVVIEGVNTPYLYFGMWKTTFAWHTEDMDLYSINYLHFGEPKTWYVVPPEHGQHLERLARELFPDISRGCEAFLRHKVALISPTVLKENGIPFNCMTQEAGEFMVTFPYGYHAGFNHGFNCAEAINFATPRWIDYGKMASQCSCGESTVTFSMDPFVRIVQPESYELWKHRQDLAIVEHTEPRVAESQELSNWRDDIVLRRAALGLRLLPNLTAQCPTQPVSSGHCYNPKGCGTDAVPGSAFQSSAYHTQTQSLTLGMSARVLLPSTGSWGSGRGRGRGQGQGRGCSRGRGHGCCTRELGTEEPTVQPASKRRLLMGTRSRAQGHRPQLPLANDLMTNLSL
Description: Inhibition of N-terminal His-6-tagged human JMJD2E (1 to 337 residues) expressed in Escherichia coli by MALDI-TOF/MS analysis

[5] = target: Lysine-specific demethylase 2A (Homo sapiens, UniProt Q9Y2K7); experiment: Inhibition of FBXL11 (unknown origin) expressed in HEK293 cells; format: cell-based
Chain of Lysine-specific demethylase 2A (Q9Y2K7 whole entry): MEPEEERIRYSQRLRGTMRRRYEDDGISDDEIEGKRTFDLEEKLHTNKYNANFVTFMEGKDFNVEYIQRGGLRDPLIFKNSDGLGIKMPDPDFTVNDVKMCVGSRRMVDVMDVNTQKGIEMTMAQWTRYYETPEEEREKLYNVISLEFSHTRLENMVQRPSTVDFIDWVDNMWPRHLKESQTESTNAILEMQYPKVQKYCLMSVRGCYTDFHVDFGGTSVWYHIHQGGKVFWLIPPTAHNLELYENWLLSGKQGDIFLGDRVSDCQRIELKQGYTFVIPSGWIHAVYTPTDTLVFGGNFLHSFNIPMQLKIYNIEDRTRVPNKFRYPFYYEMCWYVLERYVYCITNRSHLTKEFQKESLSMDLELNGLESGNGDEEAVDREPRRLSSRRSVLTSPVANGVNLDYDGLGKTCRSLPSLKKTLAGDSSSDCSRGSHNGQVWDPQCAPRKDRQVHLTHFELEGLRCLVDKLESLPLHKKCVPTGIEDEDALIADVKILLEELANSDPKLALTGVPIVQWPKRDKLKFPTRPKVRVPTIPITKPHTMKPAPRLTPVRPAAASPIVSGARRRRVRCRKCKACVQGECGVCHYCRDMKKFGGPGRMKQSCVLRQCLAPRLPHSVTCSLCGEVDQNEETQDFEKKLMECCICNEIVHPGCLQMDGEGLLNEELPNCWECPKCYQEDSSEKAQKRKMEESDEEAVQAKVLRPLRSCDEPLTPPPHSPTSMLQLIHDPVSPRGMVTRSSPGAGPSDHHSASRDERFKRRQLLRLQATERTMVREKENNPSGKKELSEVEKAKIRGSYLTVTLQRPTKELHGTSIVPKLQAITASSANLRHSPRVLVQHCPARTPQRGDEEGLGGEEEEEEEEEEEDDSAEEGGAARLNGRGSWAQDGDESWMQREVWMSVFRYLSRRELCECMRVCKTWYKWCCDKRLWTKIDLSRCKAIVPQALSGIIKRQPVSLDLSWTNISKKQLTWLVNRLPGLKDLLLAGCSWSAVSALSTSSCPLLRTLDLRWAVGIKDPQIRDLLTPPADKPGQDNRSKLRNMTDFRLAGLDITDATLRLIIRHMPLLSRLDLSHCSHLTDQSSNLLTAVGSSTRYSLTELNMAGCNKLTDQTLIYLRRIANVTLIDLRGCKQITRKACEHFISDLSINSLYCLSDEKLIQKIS

[6] = target: T1, Lysine-specific demethylase 4E; experiment: Binding affinity to JMJD2E (unknown origin)
[7] = target: Egl nine homolog 1 (Homo sapiens, UniProt Q9GZT9); experiment: Inhibition of PHD-2 (unknown origin)
[8] = target: T2, Histone-arginine methyltransferase CARM1 (Homo sapiens, UniProt Q86X55); experiment: Inhibition of CARM-1 (unknown origin) using Histone H3 Arg-17 as substrate
T2 sequence (Q86X55 whole entry): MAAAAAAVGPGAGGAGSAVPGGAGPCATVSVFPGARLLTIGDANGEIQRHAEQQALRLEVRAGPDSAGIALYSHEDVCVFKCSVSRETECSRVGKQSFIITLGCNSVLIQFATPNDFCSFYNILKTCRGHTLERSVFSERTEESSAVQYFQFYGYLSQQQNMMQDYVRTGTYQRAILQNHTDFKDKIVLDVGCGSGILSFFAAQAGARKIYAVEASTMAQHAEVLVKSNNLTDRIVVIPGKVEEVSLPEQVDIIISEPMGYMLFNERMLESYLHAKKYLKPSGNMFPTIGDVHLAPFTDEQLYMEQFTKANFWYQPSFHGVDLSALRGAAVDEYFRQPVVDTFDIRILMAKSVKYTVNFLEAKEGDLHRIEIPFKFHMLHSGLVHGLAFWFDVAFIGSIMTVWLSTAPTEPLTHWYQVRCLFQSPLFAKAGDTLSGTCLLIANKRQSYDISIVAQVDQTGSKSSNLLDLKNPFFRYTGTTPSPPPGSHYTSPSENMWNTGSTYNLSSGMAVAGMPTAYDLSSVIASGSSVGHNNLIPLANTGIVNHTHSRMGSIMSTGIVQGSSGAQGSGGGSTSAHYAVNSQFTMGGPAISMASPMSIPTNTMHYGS

[9] = Half life in C57BL/6J mouse at 10 mg/kg, po; format: ADME, organism-based; design: dose 10 mg/kg, route oral; conditions: in vivo
[10] = target: Lysine-specific demethylase 4A (Homo sapiens, UniProt O75164); experiment: Inhibition of JMJD2A (unknown origin) using ARK(me3)STGGK peptide as substrate preincubated for 1 to 30 mins followed by substrate addition by MALDI-TOF/MS analysis
[11] = target: T3, Histone acetyltransferase p300 (Homo sapiens, UniProt Q09472); experiment: Inhibition of recombinant full length p300 (unknown origin) expressed in baculovirus infected insect Sf21 cells using [3H]acetyl-CoA as substrate
T3 sequence (Q09472 whole entry): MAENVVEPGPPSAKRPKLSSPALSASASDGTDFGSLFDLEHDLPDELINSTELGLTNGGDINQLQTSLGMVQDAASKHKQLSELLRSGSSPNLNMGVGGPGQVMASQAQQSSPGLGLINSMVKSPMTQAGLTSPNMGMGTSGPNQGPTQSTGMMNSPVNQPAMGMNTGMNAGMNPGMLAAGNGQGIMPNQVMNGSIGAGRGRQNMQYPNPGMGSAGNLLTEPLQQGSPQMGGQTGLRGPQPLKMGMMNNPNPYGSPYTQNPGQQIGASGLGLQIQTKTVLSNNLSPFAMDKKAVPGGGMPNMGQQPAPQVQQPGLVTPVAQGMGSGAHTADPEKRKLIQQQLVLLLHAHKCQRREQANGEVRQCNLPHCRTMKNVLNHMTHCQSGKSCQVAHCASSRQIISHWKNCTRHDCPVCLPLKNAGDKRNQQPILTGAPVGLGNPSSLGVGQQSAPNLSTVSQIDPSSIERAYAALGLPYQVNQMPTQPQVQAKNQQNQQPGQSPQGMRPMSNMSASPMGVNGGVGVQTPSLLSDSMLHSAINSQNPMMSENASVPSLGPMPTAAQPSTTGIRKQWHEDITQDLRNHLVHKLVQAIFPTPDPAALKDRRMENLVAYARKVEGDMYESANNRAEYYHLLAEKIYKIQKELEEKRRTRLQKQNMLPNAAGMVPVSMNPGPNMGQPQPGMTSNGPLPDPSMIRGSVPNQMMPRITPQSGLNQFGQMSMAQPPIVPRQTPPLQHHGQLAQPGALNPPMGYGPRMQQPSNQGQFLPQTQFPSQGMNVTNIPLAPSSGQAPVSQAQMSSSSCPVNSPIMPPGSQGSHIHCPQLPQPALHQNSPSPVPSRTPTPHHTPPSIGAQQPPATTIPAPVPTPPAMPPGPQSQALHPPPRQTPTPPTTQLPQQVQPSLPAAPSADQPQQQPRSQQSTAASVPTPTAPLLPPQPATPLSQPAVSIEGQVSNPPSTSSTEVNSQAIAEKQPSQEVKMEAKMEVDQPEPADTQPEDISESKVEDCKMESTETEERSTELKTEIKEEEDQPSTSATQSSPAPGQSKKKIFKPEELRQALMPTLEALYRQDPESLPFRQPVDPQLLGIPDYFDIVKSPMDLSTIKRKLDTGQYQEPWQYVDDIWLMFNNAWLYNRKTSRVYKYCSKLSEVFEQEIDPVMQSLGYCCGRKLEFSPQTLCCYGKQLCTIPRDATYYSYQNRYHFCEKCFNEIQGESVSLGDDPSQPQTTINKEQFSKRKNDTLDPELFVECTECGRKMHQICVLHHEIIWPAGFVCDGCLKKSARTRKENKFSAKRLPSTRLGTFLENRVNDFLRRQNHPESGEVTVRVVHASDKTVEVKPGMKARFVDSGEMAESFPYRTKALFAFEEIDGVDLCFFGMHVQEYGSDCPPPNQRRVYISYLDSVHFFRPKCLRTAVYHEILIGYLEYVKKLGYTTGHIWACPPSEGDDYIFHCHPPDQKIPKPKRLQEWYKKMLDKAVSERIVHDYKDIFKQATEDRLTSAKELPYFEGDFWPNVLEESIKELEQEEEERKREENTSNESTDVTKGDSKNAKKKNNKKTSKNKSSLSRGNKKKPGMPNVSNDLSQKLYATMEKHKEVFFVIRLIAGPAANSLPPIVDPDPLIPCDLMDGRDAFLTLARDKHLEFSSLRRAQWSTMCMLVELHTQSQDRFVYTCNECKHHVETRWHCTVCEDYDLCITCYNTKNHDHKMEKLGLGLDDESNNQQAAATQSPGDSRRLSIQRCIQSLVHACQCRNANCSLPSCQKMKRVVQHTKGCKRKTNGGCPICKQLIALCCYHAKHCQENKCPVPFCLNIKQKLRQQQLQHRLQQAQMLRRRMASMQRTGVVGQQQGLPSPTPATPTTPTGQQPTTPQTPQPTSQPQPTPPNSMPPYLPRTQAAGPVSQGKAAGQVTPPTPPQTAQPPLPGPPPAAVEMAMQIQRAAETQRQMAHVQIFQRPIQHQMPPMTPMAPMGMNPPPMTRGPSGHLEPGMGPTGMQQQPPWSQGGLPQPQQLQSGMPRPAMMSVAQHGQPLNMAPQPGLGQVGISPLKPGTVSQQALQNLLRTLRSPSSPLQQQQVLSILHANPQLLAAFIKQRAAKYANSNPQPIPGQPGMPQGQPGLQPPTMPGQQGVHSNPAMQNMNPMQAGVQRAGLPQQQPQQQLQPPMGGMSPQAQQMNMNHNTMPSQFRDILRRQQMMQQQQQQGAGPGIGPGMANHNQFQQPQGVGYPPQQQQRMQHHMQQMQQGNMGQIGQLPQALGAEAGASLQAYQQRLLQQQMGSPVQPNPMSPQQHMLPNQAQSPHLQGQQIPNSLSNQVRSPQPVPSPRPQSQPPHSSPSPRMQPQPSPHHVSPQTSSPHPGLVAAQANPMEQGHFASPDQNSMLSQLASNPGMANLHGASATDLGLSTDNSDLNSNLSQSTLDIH

[12] = target: T3, Histone acetyltransferase p300; experiment: Binding affinity to p300 (unknown origin) by ITC analysis
[13] = target: T4, Lysine-specific histone demethylase 1A (Homo sapiens, UniProt O60341); experiment: Inhibition of N-terminal His-6-tagged full length human LSD-1 expressed in Escherichia coli BL21 (DE3) using H3K4me2 peptide as substrate at 1 uM by Western blotting analysis relative to control
[14] = target: T5, NAD-dependent protein deacetylase sirtuin-1 (Homo sapiens, UniProt Q96EB6); experiment: Inhibition of recombinant human GST-tagged SIRT-1 using ZMAL as substrate after 4 hrs by homogeneous fluorescent deacetylase assay
T5 sequence (Q96EB6 whole entry): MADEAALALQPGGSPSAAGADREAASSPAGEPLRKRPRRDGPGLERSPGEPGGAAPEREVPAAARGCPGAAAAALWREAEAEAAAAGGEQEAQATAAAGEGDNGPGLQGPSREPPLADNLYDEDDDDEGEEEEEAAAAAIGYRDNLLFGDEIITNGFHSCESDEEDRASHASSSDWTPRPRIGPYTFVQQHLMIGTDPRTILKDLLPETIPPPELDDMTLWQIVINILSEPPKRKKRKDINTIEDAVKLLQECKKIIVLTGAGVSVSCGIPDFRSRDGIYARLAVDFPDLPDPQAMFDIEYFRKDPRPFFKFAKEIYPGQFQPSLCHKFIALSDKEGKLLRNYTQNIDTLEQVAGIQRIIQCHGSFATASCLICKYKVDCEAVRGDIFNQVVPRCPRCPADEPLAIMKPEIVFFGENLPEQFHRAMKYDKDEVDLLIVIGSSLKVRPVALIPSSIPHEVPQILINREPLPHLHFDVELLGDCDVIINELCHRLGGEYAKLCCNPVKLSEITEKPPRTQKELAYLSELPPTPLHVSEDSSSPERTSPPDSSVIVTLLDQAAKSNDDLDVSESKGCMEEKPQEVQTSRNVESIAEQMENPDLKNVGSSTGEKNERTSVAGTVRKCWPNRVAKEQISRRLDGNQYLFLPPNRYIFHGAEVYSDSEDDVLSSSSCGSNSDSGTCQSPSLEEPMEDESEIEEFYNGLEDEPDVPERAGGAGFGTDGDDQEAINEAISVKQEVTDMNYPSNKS

[15] = target: T2, Histone-arginine methyltransferase CARM1; experiment: Inhibition of full-length GST-tagged CARM-1 (unknown origin) expressed in Spodoptera frugiperda cells using histone H3 and tritiated-SAM as substrate
[16] = tested on: Saccharomyces cerevisiae; experiment: Selectivity for yeast Hst1p over yeast Sir2p
[17] = target: T6, NAD-dependent protein deacetylase sirtuin-2 (Homo sapiens, UniProt Q8IXJ6); experiment: Inhibition of human SIRT-2
T6 sequence (Q8IXJ6 whole entry): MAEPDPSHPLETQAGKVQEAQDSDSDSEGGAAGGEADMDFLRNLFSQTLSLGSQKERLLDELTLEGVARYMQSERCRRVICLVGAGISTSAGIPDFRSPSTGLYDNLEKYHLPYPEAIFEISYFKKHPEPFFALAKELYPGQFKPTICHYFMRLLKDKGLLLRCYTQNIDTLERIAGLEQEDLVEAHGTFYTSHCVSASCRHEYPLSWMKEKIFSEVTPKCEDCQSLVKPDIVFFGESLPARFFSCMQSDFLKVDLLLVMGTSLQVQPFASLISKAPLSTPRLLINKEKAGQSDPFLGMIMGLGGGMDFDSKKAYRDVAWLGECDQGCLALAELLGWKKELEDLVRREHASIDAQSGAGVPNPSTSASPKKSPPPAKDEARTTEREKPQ

[18] = target: T5, NAD-dependent protein deacetylase sirtuin-1; experiment: Inhibition of human SIRT-1
[19] = target: Histone deacetylase 1 (Homo sapiens, UniProt Q13547)
Chain of Histone deacetylase 1 (Q13547 whole entry): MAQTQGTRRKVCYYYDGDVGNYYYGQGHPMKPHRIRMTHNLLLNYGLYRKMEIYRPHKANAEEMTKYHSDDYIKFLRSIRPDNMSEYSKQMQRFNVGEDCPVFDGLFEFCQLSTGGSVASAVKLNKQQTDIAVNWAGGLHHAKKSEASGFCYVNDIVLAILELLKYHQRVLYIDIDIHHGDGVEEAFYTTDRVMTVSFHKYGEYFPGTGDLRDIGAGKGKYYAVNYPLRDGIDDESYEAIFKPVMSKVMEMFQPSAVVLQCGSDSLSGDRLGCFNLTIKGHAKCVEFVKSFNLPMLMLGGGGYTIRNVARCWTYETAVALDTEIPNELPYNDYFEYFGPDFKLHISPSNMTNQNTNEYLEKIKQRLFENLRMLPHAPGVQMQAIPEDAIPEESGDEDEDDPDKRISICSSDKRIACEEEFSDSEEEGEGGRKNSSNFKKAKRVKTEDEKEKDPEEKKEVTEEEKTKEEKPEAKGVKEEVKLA
Description: Inhibition of HDAC-1 (unknown origin) using (FAM)-labeled acetylated peptide as substrate after 17 hrs by fluorescence assay

[20] = target: T3, Histone acetyltransferase p300; experiment: biochemical
Description: Inhibition of His6-tagged recombinant full length p300 (unknown origin) expressed in baculovirus infected insect Sf21 cells using [3H]acetyl-CoA as substrate preincubated for 10 mins followed by substrate addition measured after 10 mins by liquid scintillation counting analysis

[21] = target: Histone acetyltransferase KAT2B (Homo sapiens, UniProt Q92831); experiment: Inhibition of FLAG epitope-tagged recombinant human PCAF expressed in baculovirus infected insect Sf21 cells using [3H]acetyl-CoA as substrate preincubated for 10 mins followed by substrate addition measured after 10 mins by liquid scintillation counting analysis
[22] = tested on: Saccharomyces cerevisiae; experiment: Selectivity for yeast Sir2p over yeast Hst1p
[23] = target: T4, Lysine-specific histone demethylase 1A; experiment: Inhibition of N-terminal His-6-tagged full length human LSD-1 expressed in Escherichia coli BL21 (DE3) using H3K4me2 peptide as substrate by Western blotting analysis

Compound O=C1CCc2c(ccc3ccccc23)O1 [SPLITOMICIN] has an IC50 [1] of 60 µM.

Compound COc1ccc(C(=O)Oc2ccc(CCn3c(NC(=O)c4ccc(C(F)(F)F)cc4)nc4cc(C(=O)O)ccc43)cc2)cc1 has an IC50 [2] of 1.1 µM and an IC50 [3] of 4.7 µM.

C[C@](N)(Cc1ccc(O)c(O)c1)C(=O)O [METHYLDOPA] showed an IC50 [4] of 3 µM.

For [N-]=[N+]=Nc1ccc(C(=O)N[C@@H](CCCCNC(=O)COCCOCCNC(=O)CCCC[C@@H]2SC[C@@H]3NC(=O)N[C@@H]32)C(=O)NCCCNC(=O)c2ccc(O)c3ncccc23)cc1, the IC50 [5] was 9.1 µM, the Kd [6] was 58.4 µM and the IC50 [7] was 41.8 µM.

Compound NCCc1ccc(O)c(O)c1 [DOPAMINE] has an IC50 [4] of 3 µM.

O=c1oc2c(O)c(O)cc3c(=O)oc4c(O)c(O)cc1c4c23 [ELLAGIC ACID] gave an IC50 [8] of 25 µM.

NC(=O)C1CCCc2c1[nH]c1ccc(Cl)cc21 (centres undefined) gave a half-life [9] of 2 h.

CCNC(=S)SSC(=S)NCC gave an IC50 [10] of 15.3 µM.

CC1=CC(=O)c2c(O)cccc2C1=O [PLUMBAGIN] showed an IC50 [11] of 2 µM and a Kd [12] of 2 µM.

With N=C(NCCCNCCCCCCCNCCCNC(=N)NC(=N)NCCC(c1ccccc1)c1ccccc1)NC(=N)NCCC(c1ccccc1)c1ccccc1 the inhibition [13] was > 50%.

Work on O=C1NC(=S)NC(=O)C1=Cc1cc2ccccc2[nH]1 yielded an IC50 [14] of 5.9 µM.

Compound C[C@H](N)C(=O)NCc1cccc(-n2nc(C(F)(F)F)cc2-c2nnc(-c3cccc4[nH]ccc34)o2)c1 has an IC50 [15] of 0.027 µM.

Compound O=c1ccc2c(ccc3ccccc32)o1 has a Selectivity ratio [16] of 5.

For CC(C)=CCC/C(C)=C/C[C@@H]1C[C@@]2(CC=C(C)C)C(=O)[C@](CC=C(C)C)(C(=O)C(C(=O)c3ccc(O)c(O)c3)=C2O)[C@@]1(C)CCC=C(C)C, the IC50 [17] was 22 µM and the IC50 [18] was 9 µM.

In the case of Nc1ccccc1NC(=O)CCCCCCC(=O)Nc1cccc(-c2cn(-c3ccccc3)nn2)c1, the IC50 [19] is reported as > 30 µM.

Compound CCCCCCCCCCCCCCCc1cccc(O)c1C(=O)O [ANACARDIC ACID] has an IC50 [20] of 8.5 µM and an IC50 [21] of 5 µM.

O=C1CCc2c(c(OCc3ccccc3)cc3ccccc23)O1 gave a Selectivity ratio [22] of 13.

Work on CCNCCCCCCCCCCCCCCCCNC/C=C/CNCCCCCCCCCCCCCCCCNCC yielded an IC50 [23] of 5 µM.
